Measurements from patent publication US7960393B2, “Pyrimidine derivatives useful for the treatment of diseases mediated by CRTH2” (Actimis Pharmaceuticals, Inc., priority 2002, dated 2011).

Molecular target: T1, human CRTH2 (Homo sapiens, UniProt Q9Y5Y4)
T1 construct: expressed in transfected cells; host or cells: L1.2 cells, pEAK expression vector, puromycin-selected
T1 sequence (Q9Y5Y4 1-395): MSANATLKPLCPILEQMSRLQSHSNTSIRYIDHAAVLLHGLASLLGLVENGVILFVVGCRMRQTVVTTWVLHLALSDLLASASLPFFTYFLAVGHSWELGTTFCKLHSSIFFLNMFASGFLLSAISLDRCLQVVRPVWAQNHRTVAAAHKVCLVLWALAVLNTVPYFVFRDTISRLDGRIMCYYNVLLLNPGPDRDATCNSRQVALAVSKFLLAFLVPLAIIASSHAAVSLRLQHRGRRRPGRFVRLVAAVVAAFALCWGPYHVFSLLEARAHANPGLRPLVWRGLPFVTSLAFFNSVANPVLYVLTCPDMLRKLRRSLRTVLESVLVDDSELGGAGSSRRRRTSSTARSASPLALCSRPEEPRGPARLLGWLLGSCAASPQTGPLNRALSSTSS
Experiment: Measurement of Ca2+ mobilization in the human CRTH2-transfected L1.2 cell line (Assay 1)
Format: cell-based
Conditions: PGD2-induced Ca2+ mobilization in CRTH2-transfected L1.2 cells; compounds as yielded by solid phase synthesis, purity about 40 to 90%; read-out: Activity class
Method: Human CRTH2 cDNA was amplified from human eosinophil cDNA with gene specific primers containing restriction sites for cloning into pEAK vector (Edge Bio Systems). The human CRTH2 cDNA was cloned into the mammalian expression vector pEAK. This expression plasmid (40 μg) was transfected into L1.2 cells, at a cell density of 1×10^7 cells/500 μl, by using electroporation apparatus (Gene Pulser II, BioRad) at 250V/1,000 μF. One day after the transfection, puromycin (1 μg/ml, Sigma) was added into the cell culture plates. Two weeks after the transfection, grown cells were picked up for further growth.
[Measurement of Ca^2+ Mobilization in the Human CRTH2-Transfected L1.2 Cell Line] (Assay 1)
Ca^2+ loading buffer was prepared by mixing 5 μl of Fluo-3AM (2 mM in DMSO, final 1 μM, Molecular Probes) and 10 μl of pluronic F-127 (Molecular Probes) and diluting the resulting mixture in 10 ml of Ca^2+ assay buffer (20 mM HEPES pH 7.6, 0.1% BSA, 1 mM probenecid, Hanks' solution). The CRTH2 transfected cells which were prepared in Example 1 were washed with PBS, resuspended in Ca^2+ loading buffer at 1×10^7 cells/ml, and incubated for 60 min at room temperature. After incubation, cells were washed and resuspended in Ca^2+ assay buffer, then dispensed into transparent-bottom 96-well plates (#3631, Costar) at 2×10^5 cells/well. Cells were incubated with various concentrations of test compound for 5 minutes at room temperature. The emitted 480 nm fluorescence was measured on FDSS6000, a Ca^2+-measurement apparatus (Hamamatsu Photonics, Hamamatsu, Japan).
Assay results in Assay 1 are shown in Examples and tables of the Examples below. The data corresponds to the compounds as yielded by solid phase synthesis and thus to levels of purity of about 40 to 90%. For practical reasons, the compounds are grouped in four classes of activity as follows: IC50=A(< or =)10 nM<B(< or =)100 nM<C(< or =)500 nM<D

SMILES | IC50 [nM]
CN(C)c1nc(Cc2ccc(NC(=O)c3ccc(OC(F)(F)F)cc3)cc2)ncc1CC(=O)O [Example 2-19] | < 10
CN(C)c1nc(Cc2ccc(NC(=O)c3ccc4ccccc4c3)cc2)nc(Cl)c1CC#N [Example 12, N-(4-{[4-Chloro-5-(cyanomethyl)-6-(dimethylamino)pyrimidin-2-yl]methyl}phenyl)-2-naphthamide] | 100 to 500
CN(CC(=O)NC1CCCC1)c1nc(Cc2ccc(NC(=O)NCCc3ccccc3)cc2)nc(Cl)c1CC(=O)O [Example 4-3] | 10 to 100
CCCCCCCNc1ccc(Cc2nc(Cl)c(CC(=O)O)c(N(C)CC(=O)NC3CCCC3)n2)cc1 [Example 5-5] | > 500
O=C(O)Cc1c(Cl)nc(Cc2ccc(NC(=O)c3ccc4ccccc4c3)cc2)nc1N1CC=CC1 [Example 3-10] | < 10
CN(CC(=O)O)c1nc(Cc2ccc(NC(=O)c3ccc4ccccc4c3)cc2)nc(Cl)c1CC(=O)O [Example 3-2] | 10 to 100
CC(c1ccc(NC(=O)c2ccc3ccccc3c2)cc1)c1ncc(CC(=O)O)c(N(C)C)n1 (stereo not drawn) [Example 2-18] | < 10
CCN(C)c1nc(Cc2ccc(NC(=O)c3ccc4ccccc4c3)cc2)nc(Cl)c1CC(=O)O [Example 3-12] | < 10
COc1ccc(C(=O)Nc2ccc(Cc3nc(Cl)c(CC(=O)O)c(N4CCCC4)n3)cc2)cc1Cl [Example 3-16] | < 10
CN(C)c1nc(Cc2ccc(NC(=O)c3ccc4cc[nH]c4c3)cc2)nc(Cl)c1CC(=O)O [Example 3-8] | < 10
CN(CC(=O)NC1CCCC1)c1nc(Cc2ccc(NC(=O)Nc3ccc4ccccc4c3)cc2)nc(Cl)c1CC(=O)O [Example 4-4] | 10 to 100
O=C(O)Cc1c(Cl)nc(Cc2ccc(NC(=O)c3ccc4ccccc4c3)cc2)nc1N1CCC(O)C1 (stereo not drawn) [Example 3-13] | < 10
CN(C)c1nc(Cc2ccc(NC(=O)c3ccc(S(N)(=O)=O)cc3)cc2)nc(Cl)c1CC(=O)O [Example 1-40] | 100 to 500
CN(C)c1nc(Cc2ccc(NC(=O)NCc3ccccc3)cc2)ncc1CC(=O)O [Example 4-5] | 10 to 100
O=C(O)Cc1c(Cl)nc(Cc2ccc(NC(=O)c3ccc4ccccc4c3)cc2)nc1N1CCCC1 [Example 3-1, {4-Chloro-2-[4-(2-naphthoylamino)benzyl]-6-pyrrolidin-1-ylpyrimidin-5-yl}acetic acid] | < 10
O=C(O)Cc1c(Cl)nc(Cc2ccc(NC(=O)c3ccc4ccccc4c3)cc2)nc1N1CCC[C@H]1C(=O)O [Example 3-14] | 10 to 100
CN(CC(=O)N1CCCC1)c1nc(Cc2ccc(NC(=O)c3ccc4ccccc4c3)cc2)ncc1CC(=O)O [Example 2-3] | < 10
CN(C)c1nc(Cc2ccc(NC(=O)c3ccc(F)cc3)cc2)ncc1CC(=O)O [Example 2-20] | 10 to 100
CN(C)c1nc(Cc2ccc(NC(=O)/C=C/c3ccc(C(F)(F)F)cc3)cc2)ncc1CC(=O)O [Example 2-17] | < 10

Other lines, results leading:

IC50 [nM] | SMILES
10 to 100 | CN(C)c1nc(Cc2ccc(NC(=O)c3ccc4ccccc4c3)cc2)nc(N2CCCC2)c1CC(=O)O [Example 7-4]
< 10 | Cc1nc(Cc2ccc(NC(=O)c3ccc(Cl)c(Cl)c3)cc2)nc(N(C)C)c1CC(=O)O [Example 8-4]
10 to 100 | CN(C)c1nc(Cc2ccc(NC(=O)OCc3ccc([N+](=O)[O-])cc3)cc2)ncc1CC(=O)O [Example 9-4]
10 to 100 | CN(C)c1nc(Cc2ccc(NC(=O)c3ccc4ccccc4c3)cc2)nc(N2CCCCC2)c1CC(=O)O [Example 7-5]
10 to 100 | CN(C)c1nc(Cc2ccc(NC(=O)c3ccc4ccccc4c3)cc2)nc(N(C)C)c1CC(=O)O [Example 7-3]
< 10 | Cc1nc(Cc2ccc(NC(=O)c3ccc(Cl)c(Cl)c3)cc2)nc(N2CCCC2)c1CC(=O)O [Example 8-2]
< 10 | CN(C)c1nc(Cc2ccc(NC(=O)/C=C/c3ccccc3)cc2)nc(N(C)C)c1CC(=O)O [Example 7-7]
100 to 500 | CN(C)c1nc(Cc2ccc(N(C)C(=O)c3ccc(Cl)cc3)cc2)nc(Cl)c1CC(=O)O [Example 6-1, [4-Chloro-2-{4-[(4-chlorobenzoyl)(methyl)amino]benzyl}-6-(dimethylamino)pyrimidin-5-yl]acetic acid]
